The AC50 is the concentration at which the activity in the assay is half-maximal.

Assay [1] concerns the target Voltage-dependent N-type calcium channel subunit alpha-1B (Rattus norvegicus, UniProt Q02294). Format: functional.
The target of a further assay is T1, D(4) dopamine receptor (Homo sapiens, UniProt P21917).
T1 sequence (P21917 whole entry): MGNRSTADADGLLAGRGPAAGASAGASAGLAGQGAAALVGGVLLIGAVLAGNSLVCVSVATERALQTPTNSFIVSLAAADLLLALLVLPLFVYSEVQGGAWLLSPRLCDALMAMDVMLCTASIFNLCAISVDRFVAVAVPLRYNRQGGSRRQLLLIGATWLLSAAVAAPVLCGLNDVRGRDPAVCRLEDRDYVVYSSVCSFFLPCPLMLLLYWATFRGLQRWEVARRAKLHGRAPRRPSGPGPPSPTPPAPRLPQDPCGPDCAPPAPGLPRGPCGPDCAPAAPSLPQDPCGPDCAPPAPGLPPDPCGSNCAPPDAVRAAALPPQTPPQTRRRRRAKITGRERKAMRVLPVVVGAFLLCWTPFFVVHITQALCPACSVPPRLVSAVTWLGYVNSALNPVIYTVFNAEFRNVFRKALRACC

The target in assay [2] is T2, Endothelin receptor type B (Homo sapiens, UniProt P24530).
T2 sequence (P24530 whole entry): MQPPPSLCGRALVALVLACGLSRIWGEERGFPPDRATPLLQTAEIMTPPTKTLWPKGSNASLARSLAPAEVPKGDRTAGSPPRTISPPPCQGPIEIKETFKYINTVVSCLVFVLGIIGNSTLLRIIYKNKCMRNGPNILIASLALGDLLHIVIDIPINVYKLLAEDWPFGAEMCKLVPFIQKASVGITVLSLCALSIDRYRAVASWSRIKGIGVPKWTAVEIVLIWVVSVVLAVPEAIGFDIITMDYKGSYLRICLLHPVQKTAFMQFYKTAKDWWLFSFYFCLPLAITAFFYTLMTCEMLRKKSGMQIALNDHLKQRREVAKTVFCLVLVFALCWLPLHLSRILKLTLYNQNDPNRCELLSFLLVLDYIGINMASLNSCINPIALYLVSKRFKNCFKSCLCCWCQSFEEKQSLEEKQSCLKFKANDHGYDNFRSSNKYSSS

Assay [3] concerns the target T3, Gamma-aminobutyric acid receptor subunit alpha-1/alpha-2/beta-2/gamma-2 (Homo sapiens, UniProt P14867+P18507+P47869+P47870). Format: protein-complex assay.
A further assay addresses Glucagon receptor (Homo sapiens, UniProt P47871).
For the next assay, the target named is T4, Glucocorticoid receptor (Homo sapiens, UniProt P04150).
T4 sequence (P04150 whole entry): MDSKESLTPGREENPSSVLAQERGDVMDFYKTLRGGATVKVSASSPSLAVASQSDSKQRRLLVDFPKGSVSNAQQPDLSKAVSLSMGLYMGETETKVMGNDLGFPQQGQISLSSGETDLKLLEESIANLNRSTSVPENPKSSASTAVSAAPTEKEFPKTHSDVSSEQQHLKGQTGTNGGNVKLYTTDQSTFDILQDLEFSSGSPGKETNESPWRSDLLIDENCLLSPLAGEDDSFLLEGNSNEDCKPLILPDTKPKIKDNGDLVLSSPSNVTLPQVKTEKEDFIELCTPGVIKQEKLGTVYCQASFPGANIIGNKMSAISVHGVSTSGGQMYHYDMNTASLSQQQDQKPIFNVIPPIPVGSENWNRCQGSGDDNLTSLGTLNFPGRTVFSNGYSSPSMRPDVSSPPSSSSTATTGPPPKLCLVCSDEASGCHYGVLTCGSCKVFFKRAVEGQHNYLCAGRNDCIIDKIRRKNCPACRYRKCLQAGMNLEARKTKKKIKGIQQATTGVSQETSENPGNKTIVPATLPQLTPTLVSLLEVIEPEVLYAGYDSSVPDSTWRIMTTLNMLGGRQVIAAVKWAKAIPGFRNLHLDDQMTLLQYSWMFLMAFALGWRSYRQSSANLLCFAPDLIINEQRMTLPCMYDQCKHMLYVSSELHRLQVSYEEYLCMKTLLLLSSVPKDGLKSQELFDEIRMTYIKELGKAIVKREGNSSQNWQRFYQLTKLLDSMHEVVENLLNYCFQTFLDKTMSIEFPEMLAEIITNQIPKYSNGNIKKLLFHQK

Another assay addresses T5, Progesterone receptor (Homo sapiens, UniProt P06401).
T5 sequence (P06401 whole entry): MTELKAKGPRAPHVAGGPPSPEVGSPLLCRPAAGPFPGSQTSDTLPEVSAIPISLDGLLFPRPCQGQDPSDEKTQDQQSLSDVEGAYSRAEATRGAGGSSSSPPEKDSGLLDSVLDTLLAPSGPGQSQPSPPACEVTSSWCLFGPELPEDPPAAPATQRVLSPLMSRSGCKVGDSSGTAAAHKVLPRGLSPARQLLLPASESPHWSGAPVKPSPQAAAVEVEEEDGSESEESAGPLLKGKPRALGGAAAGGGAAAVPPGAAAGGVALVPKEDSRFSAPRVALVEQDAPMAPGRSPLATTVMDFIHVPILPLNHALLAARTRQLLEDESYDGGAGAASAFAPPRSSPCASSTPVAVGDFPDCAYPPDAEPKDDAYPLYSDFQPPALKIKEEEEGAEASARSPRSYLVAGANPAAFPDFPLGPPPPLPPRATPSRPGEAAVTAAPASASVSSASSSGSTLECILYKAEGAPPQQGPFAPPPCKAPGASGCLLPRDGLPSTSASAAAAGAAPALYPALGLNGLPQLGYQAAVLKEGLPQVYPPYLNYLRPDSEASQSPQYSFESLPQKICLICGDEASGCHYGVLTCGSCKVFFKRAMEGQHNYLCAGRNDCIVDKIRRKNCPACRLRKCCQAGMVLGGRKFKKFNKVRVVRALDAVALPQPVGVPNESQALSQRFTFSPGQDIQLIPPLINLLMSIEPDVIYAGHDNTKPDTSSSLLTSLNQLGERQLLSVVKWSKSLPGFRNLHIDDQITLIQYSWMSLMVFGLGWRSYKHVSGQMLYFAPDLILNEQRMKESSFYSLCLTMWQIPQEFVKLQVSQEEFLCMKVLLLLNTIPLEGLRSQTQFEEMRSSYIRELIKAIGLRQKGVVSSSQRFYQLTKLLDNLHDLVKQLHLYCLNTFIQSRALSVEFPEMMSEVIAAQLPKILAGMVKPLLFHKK

Assay [4] concerns the target Muscarinic acetylcholine receptor M3 (Homo sapiens, UniProt P20309).
Assay [5] addresses T3, Gamma-aminobutyric acid receptor subunit alpha-1/alpha-2/beta-2/gamma-2. Format: functional, cell-based.

Molecules are shown by their SMILES. Where only a bound is given, the exact number is not on record here.
Also: assay procedure not described here.

T3 sequence (P14867 whole entry): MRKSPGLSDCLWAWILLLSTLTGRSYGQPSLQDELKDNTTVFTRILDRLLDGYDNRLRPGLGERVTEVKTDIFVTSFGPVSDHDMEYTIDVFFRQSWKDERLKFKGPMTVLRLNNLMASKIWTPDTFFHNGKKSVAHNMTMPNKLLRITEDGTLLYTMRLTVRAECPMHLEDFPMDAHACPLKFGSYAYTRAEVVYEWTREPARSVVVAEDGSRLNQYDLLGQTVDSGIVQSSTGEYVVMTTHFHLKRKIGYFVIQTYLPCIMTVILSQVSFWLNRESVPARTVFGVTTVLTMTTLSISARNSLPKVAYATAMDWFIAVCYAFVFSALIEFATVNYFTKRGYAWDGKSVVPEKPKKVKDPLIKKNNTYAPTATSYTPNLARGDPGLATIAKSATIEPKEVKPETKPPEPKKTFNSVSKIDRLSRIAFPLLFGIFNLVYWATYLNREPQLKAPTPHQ
T3 sequence (P47870 whole entry): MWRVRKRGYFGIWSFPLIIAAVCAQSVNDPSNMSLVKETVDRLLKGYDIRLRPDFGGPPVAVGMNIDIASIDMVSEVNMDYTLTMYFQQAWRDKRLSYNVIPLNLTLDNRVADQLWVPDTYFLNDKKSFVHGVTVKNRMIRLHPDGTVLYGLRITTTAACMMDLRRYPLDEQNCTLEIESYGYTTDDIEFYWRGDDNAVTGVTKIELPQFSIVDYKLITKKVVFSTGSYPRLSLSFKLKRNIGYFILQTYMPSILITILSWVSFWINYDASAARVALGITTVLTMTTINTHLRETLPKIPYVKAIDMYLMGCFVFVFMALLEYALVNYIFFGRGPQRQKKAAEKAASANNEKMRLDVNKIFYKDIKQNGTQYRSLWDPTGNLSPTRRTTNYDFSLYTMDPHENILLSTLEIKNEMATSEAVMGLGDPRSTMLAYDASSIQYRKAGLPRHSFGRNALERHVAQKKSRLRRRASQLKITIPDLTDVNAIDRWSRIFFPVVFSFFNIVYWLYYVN
T3 sequence (P18507 whole entry): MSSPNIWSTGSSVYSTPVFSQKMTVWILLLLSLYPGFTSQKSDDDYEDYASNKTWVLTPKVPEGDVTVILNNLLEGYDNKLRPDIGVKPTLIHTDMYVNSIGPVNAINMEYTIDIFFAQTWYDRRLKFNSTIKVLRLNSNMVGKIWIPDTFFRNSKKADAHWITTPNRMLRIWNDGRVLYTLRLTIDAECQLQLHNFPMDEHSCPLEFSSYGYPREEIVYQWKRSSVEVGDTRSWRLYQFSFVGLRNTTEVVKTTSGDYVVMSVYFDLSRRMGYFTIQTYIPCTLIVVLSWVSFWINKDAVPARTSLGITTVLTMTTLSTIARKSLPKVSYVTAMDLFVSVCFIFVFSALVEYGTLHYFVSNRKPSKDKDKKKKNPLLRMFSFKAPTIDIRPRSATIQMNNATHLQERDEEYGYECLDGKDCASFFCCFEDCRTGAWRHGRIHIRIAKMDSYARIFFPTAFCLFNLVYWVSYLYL
T3 sequence (P47869 whole entry): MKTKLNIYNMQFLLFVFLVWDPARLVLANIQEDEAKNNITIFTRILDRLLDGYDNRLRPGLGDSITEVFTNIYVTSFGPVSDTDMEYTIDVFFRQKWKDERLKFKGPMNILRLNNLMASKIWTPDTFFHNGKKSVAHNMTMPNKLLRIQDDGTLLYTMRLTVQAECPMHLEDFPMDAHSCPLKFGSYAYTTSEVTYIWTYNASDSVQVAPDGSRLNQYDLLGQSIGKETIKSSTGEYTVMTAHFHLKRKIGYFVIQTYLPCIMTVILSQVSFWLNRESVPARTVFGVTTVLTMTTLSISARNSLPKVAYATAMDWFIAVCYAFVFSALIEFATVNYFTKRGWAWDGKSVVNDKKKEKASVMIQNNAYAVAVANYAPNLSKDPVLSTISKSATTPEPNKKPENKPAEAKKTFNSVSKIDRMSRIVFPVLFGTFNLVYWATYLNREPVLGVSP
Sequence of Muscarinic acetylcholine receptor M3 (P20309 whole entry): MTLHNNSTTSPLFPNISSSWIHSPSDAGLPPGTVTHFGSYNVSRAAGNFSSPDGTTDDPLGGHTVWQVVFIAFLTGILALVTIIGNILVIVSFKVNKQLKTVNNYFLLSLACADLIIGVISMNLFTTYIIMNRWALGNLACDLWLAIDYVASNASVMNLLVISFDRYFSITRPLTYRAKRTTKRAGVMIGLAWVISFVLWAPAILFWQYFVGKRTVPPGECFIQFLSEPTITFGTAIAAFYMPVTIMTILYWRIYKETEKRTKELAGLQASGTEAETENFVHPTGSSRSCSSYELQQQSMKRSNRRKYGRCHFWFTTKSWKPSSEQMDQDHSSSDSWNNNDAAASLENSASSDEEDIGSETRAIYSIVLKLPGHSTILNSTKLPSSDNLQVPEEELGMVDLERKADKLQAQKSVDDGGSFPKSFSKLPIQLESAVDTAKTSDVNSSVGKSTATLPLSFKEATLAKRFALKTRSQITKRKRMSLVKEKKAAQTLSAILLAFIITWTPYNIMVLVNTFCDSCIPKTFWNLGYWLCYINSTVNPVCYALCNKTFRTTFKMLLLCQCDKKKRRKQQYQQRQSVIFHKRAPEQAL
Sequence of Glucagon receptor (P47871 whole entry): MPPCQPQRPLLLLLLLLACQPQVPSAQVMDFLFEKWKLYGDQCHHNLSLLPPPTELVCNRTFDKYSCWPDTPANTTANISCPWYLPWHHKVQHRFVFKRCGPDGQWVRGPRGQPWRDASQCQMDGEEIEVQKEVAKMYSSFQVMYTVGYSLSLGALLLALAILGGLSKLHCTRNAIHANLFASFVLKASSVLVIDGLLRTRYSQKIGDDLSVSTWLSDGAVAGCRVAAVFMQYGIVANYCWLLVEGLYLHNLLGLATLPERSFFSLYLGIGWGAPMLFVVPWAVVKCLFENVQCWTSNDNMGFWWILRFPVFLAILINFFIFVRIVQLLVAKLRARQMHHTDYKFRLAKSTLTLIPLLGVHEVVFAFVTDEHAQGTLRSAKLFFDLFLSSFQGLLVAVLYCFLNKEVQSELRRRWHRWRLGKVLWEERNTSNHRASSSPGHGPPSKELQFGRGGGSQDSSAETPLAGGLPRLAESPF

`Cc1onc(-c2ccccc2)c1-c1ccc(S(N)(=O)=O)cc1` [VALDECOXIB]: the AC50 in assay [1] is greater than 10 µM; on D(4) dopamine receptor, greater than 10 µM; in [2], greater than 30 µM; in assay [3], greater than 30 µM; at Glucagon receptor it was greater than 30 µM; at Glucocorticoid receptor it was greater than 30 µM. The same compound came in with an AC50 on Progesterone receptor greater than 30 µM.
`CN(C)CCc1c[nH]c2ccc(Cn3cncn3)cc12` [RIZATRIPTAN]: the AC50 is greater than 10 µM in [1]; greater than 30 µM in assay [4]; greater than 10 µM on D(4) dopamine receptor; greater than 30 µM in assay [2]; greater than 30 µM in assay [5]; greater than 30 µM on Glucagon receptor. At Progesterone receptor, this compound showed an AC50 greater than 30 µM.
As for `N[C@@H](CC(=O)N1CCn2c(nnc2C(F)(F)F)C1)Cc1cc(F)c(F)cc1F` [SITAGLIPTIN], the half-maximal activity concentration (AC50) in assay [1] was greater than 10 µM; in assay [4], greater than 30 µM; on D(4) dopamine receptor, greater than 10 µM; in assay [2], greater than 10 µM; in assay [5], greater than 30 µM.
Regarding `CC(C)Cc1ccc(C(C)C(=O)O)cc1` (stereo unspecified) [IBUPROFEN], the AC50 in assay [1] is greater than 10 µM; at D(4) dopamine receptor, greater than 10 µM; in [2], greater than 30 µM; in assay [3], greater than 30 µM; on Glucagon receptor, greater than 30 µM; at Glucocorticoid receptor it was greater than 30 µM. On Progesterone receptor, the AC50 was greater than 30 µM.
Turning to `COc1ccccc1OCCNCC(O)COc1cccc2[nH]c3ccccc3c12` (stereo unspecified) [CARVEDILOL], the AC50 in assay [1] was greater than 10 µM; on D(4) dopamine receptor it was 0.0172 µM; in assay [2], greater than 30 µM; on Glucagon receptor, greater than 30 µM; on Glucocorticoid receptor, greater than 30 µM; on Progesterone receptor it was greater than 30 µM.
Take `CCCN(CCC)C(=O)Cc1c(-c2ccc(Cl)cc2)nc2ccc(Cl)cn12` [ALPIDEM]: the AC50 was greater than 10 µM in [1]; greater than 30 µM in assay [4]; greater than 10 µM at D(4) dopamine receptor; greater than 10 µM in [2]; greater than 10 µM in [5]; greater than 10 µM at Glucagon receptor.
Take `CCCC(CCC)C(=O)O` [VALPROIC ACID]: the AC50 in assay [1] is greater than 10 µM; at D(4) dopamine receptor, greater than 10 µM; in [2] it was greater than 30 µM; at Glucagon receptor it was greater than 30 µM; on Glucocorticoid receptor, greater than 30 µM; at Progesterone receptor, greater than 30 µM.
On to `C=CC[C@@H]1/C=C(\C)C[C@H](C)C[C@H](OC)[C@H]2O[C@@](O)(C(=O)C(=O)N3CCCC[C@H]3C(=O)O[C@H](/C(C)=C/[C@@H]3CC[C@@H](O)[C@H](OC)C3)[C@H](C)[C@@H](O)CC1=O)[C@H](C)C[C@@H]2OC` [TACROLIMUS ANHYDROUS], for which the AC50 is greater than 10 µM in [1]; greater than 10 µM on D(4) dopamine receptor; greater than 30 µM in assay [2]; greater than 30 µM in assay [5]; greater than 30 µM at Glucagon receptor; greater than 30 µM on Glucocorticoid receptor. For the same compound, the AC50 on Progesterone receptor is greater than 30 µM.
